Test results from PMC5888987 (Carcinogenesis, 2018).

Columns and labels:
Assay type in all cases: biochemical
DNMT3A = DNMT3A (Homo sapiens, UniProt Q9Y6K1); assay: AlphaScreen methyltransferase assay with […] SAM
DNMT3B = DNMT3B (Homo sapiens, UniProt Q9UBC3); assay: AlphaScreen methyltransferase assay with […] SAM
DNMT1 = DNMT1 (Homo sapiens, UniProt P26358); assay: AlphaScreen methyltransferase assay with […] SAM
mTOR = mTOR (Homo sapiens, UniProt P42345); assay: FRET-based Z-LYTE kinase assay

Chain of DNMT3A (Q9Y6K1 whole entry, looked up): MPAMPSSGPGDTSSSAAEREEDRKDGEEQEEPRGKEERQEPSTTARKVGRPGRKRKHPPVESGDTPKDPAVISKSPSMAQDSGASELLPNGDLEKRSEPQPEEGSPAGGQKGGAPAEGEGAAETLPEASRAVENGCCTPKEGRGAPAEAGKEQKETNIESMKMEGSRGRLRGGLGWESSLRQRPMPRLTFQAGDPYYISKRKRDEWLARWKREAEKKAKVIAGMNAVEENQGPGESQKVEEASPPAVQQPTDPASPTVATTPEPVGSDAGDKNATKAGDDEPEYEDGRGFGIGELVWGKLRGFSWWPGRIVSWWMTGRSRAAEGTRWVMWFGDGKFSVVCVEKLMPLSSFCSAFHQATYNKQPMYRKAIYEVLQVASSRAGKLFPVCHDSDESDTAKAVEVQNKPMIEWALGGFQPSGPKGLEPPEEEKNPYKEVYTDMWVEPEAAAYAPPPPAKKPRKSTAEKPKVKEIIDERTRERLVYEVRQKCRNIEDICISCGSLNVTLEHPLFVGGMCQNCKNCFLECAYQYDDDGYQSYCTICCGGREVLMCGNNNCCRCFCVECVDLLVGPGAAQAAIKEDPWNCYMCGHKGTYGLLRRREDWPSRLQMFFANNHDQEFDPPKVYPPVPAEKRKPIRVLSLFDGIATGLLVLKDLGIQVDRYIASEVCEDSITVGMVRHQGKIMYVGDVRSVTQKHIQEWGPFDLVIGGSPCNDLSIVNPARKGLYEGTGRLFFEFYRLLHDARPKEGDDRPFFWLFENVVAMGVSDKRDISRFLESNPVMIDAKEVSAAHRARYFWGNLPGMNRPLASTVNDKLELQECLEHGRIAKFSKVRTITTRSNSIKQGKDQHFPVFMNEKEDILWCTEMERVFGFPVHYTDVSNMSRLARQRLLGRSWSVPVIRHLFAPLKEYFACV
Chain of DNMT1 (P26358 whole entry): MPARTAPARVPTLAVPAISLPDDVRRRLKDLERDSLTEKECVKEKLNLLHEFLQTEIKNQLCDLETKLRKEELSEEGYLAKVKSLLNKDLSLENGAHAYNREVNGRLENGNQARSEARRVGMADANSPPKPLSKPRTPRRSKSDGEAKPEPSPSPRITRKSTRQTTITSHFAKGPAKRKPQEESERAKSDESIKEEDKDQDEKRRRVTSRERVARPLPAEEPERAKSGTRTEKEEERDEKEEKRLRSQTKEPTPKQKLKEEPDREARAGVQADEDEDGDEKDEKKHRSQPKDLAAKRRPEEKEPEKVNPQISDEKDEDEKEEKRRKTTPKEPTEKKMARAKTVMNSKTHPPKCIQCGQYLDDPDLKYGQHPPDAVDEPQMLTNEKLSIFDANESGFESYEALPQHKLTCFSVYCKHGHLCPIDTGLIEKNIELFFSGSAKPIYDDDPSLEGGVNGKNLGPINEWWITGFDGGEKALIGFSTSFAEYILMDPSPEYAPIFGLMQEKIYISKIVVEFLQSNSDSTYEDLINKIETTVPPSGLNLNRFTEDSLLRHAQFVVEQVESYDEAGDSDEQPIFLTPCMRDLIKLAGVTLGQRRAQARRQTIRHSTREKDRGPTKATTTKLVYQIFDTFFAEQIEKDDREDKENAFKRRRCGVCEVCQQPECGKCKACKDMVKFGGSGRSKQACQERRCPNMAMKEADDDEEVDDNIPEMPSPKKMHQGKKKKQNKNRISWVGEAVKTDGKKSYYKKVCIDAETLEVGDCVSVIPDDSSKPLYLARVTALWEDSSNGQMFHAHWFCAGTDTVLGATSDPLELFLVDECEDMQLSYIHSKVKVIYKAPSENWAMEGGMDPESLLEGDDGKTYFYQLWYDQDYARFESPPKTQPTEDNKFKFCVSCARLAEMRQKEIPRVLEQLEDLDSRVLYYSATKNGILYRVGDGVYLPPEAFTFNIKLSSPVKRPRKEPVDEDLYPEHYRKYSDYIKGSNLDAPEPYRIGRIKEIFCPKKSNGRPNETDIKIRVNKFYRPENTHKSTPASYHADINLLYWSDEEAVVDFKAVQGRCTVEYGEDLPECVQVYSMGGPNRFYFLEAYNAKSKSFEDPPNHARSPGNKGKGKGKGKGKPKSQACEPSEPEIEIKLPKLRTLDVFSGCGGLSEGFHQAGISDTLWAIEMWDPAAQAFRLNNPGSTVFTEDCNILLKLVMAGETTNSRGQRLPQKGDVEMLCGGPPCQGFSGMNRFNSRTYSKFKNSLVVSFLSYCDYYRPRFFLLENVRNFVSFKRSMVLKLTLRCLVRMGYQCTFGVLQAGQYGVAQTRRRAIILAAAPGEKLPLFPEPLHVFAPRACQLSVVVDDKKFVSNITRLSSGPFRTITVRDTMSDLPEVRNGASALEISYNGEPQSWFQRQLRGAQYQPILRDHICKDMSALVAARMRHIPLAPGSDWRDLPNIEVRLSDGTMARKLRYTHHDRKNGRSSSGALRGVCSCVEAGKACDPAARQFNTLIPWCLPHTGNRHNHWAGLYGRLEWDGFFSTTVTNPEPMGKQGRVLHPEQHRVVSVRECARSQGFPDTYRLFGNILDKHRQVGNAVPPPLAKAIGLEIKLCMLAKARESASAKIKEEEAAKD

IC50 (DNMT3A) | IC50 (DNMT3B) | IC50 (DNMT1) | IC50 (mTOR) | Structure (SMILES)
5.8 µM | 2.8 µM | – | – | Nc1ncnc2c1ncn2[C@@H]1O[C@H](CSCC[C@H](N)C(=O)O)[C@@H](O)[C@H]1O [SAH, S-adenosyl-l-homocysteine, reference compound]
5.7 µM | 5.2 µM | 11.5 µM | 2.6 µM | C/C=C(/C=O)[C@@H](CC=O)CC(=O)OCCc1ccc(O)c(O)c1 [DOA, decarboxymethyl oleuropein aglycone]
